In the supplement of paper PMC6733853:

Experiments:
mu opioid receptor (rat) [1] = target: mu opioid receptor (rat) (UniProt P33535); experiment: Log(tau/KA) transduction coefficient (log10 (M-1)); higher = more effective agonism; details: receptor: rat MOR
[2] = target: delta opioid receptor (human) (UniProt P41143); experiment: as above; details: receptor: human DOR
[3] = target: delta opioid receptor (rat) (UniProt P33533); experiment: as above; details: receptor: rat DOR
[4] = target: delta opioid receptor (rat) (UniProt P33533)
[5] = target: mu opioid receptor (human) (UniProt P35372); experiment: Log(tau/KA) transduction coefficient (log10 (M-1)); higher = more effective agonism; details: receptor: human MOR
mu opioid receptor (human), sequence (P35372 whole entry): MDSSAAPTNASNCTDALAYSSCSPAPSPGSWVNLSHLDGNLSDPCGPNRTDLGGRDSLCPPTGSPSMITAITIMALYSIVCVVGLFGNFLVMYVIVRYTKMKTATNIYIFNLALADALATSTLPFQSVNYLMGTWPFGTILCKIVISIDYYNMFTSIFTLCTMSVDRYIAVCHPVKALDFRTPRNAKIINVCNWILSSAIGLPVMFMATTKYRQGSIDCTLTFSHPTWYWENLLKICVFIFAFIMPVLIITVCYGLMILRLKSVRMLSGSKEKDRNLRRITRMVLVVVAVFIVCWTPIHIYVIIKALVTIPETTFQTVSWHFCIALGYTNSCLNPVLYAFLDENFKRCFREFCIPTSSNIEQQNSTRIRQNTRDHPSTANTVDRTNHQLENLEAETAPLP

mu opioid receptor (rat) [6] = target: mu opioid receptor (rat) (UniProt P33535)

delta opioid receptor (rat), sequence (P33533 whole entry): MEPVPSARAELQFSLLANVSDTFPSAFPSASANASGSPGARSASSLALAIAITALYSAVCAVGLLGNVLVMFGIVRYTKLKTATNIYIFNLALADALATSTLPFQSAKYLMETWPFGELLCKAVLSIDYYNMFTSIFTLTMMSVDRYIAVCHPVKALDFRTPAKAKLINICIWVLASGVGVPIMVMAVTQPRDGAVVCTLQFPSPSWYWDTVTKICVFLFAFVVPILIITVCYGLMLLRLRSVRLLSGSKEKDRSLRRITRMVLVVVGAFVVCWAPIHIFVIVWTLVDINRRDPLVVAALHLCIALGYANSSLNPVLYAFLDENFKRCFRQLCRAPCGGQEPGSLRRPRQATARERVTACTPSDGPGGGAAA
delta opioid receptor (human), sequence (P41143 whole entry): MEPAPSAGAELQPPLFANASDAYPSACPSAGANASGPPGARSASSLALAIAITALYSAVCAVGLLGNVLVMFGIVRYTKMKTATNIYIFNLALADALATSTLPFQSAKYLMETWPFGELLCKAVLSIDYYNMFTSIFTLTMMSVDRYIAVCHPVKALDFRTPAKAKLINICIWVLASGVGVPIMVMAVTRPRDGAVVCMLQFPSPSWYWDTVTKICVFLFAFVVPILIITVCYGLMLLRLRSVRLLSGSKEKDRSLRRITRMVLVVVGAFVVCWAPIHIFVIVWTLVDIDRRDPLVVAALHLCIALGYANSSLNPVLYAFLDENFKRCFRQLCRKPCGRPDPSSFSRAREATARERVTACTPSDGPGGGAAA
mu opioid receptor (rat), sequence (P33535 whole entry): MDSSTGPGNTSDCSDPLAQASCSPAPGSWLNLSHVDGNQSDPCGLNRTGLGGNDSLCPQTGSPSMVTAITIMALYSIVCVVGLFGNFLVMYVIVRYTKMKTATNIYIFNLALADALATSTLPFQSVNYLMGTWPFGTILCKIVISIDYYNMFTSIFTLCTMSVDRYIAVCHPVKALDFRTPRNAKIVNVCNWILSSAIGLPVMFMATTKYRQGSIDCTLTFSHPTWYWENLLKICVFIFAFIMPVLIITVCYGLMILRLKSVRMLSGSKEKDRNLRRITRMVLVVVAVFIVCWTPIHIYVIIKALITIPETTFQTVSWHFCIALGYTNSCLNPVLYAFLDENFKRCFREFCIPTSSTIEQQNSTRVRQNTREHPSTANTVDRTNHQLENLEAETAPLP

Row | Structure (SMILES) | Log(tau/KA) transduction coefficient (log10) (mu opioid receptor (rat) [1]; Gαi1) | Log(tau/KA) transduction coefficient (log10) (mu opioid receptor (rat) [1]; Gαi2) | Log(tau/KA) transduction coefficient (log10) (mu opioid receptor (rat) [1]; Gαo) | Log(tau/KA) transduction coefficient (log10) (mu opioid receptor (rat) [1]; Kir) | Log(tau/KA) transduction coefficient (log10) (mu opioid receptor (rat) [1]; cAMP) | Log(tau/KA) transduction coefficient (log10) (mu opioid receptor (rat) [1]; βarrestine 2) | Log(tau/KA) transduction coefficient (log10) (mu opioid receptor (rat) [1]; βarrestine 2-GRK2) | Log(tau/KA) transduction coefficient (log10) (mu opioid receptor (rat) [1]; βarrestine 2-GRK5) | Log(tau/KA) transduction coefficient (log10) (mu opioid receptor (rat) [1]; βarrestine 2-GRK6) | Log(tau/KA) transduction coefficient (log10) ([2]; Gαi1) | Log(tau/KA) transduction coefficient (log10) ([2]; Gαi2) | Log(tau/KA) transduction coefficient (log10) ([2]; Gαo) | Log(tau/KA) transduction coefficient (log10) ([2]; Kir) | Log(tau/KA) transduction coefficient (log10) ([2]; cAMP) | Log(tau/KA) transduction coefficient (log10) ([2]; βarrestine 2-GRK6) | Log(tau/KA) transduction coefficient (log10) ([3]; Gαi1) | Log(tau/KA) transduction coefficient (log10) ([3]; Gαi2) | Log(tau/KA) transduction coefficient (log10) ([3]; Gαo) | Log(tau/KA) transduction coefficient (log10) ([3]; Kir) | Log(tau/KA) transduction coefficient (log10) ([3]; cAMP) | other results
1 | C[C@@H](NC(=O)[C@@H](N)Cc1ccc(O)cc1)C(=O)NCC(=O)N(C)[C@@H](Cc1ccccc1)C(=O)NCCO [DAMGO] | 6.18 | 7.5 | 6.49 | 7.11 | 8.44 | 5.51 | 6.21 | 6.26 | 5.9 |  |  |  |  |  |  |  |  |  |  |  | Log(tau/KA) transduction coefficient (log10) (mu opioid receptor (rat) [1]; βarrestine 1): 5.59
2 | CN1CC[C@]23c4c5ccc(O)c4O[C@H]2[C@@H](O)C=C[C@H]3[C@H]1C5 [Morphine] | 6.9 | 8.35 | 7.99 | 7.44 | 8.08 | 5.69 | 6.29 | 6.37 | 5.35 | 4.26 | 5.75 | 5.24 | 5.05 | 8.19 | 3.94 | 4.41 | 5.31 | 5.14 | 4.79 | 6.68 | Log(tau/KA) transduction coefficient (log10) ([2]; βarrestine 2-GRK5): 4.04; Log(tau/KA) transduction coefficient (log10) ([3]; βarrestine 2): 4.16; Log(tau/KA) transduction coefficient (log10) ([3]; βarrestine 2-GRK2): 4.24; Log(tau/KA) transduction coefficient (log10) ([3]; βarrestine 2-GRK5): 4.53; Log(tau/KA) transduction coefficient (log10) ([3]; βarrestine 2-GRK6): 4.2
3 | CN(C)C(=O)C(CCN1CCC(O)(c2ccc(Cl)cc2)CC1)(c1ccccc1)c1ccccc1 [Loperamide] | 7.2 | 8.27 | 7.56 | 6.46 | 7.69 | 5.68 | 6.37 | 6.39 | 6.04 | 4.52 | 5.79 | 5.28 | 5.54 | 7.28 | 4.63 | 4.78 | 5.24 | 5.22 | 5.02 | 5.9 | Log(tau/KA) transduction coefficient (log10) ([2]; βarrestine 1): 4.05; Log(tau/KA) transduction coefficient (log10) ([2]; βarrestine 2): 4.37; Log(tau/KA) transduction coefficient (log10) ([2]; βarrestine 2-GRK2): 4.62; Log(tau/KA) transduction coefficient (log10) ([2]; βarrestine 2-GRK5): 4.71; Log(tau/KA) transduction coefficient (log10) ([3]; βarrestine 1): 3.96; Log(tau/KA) transduction coefficient (log10) ([3]; βarrestine 2): 4.1; Log(tau/KA) transduction coefficient (log10) ([3]; βarrestine 2-GRK2): 4.29; Log(tau/KA) transduction coefficient (log10) ([3]; βarrestine 2-GRK5): 4.61; Log(tau/KA) transduction coefficient (log10) ([3]; βarrestine 2-GRK6): 4.48; Log(tau/KA) transduction coefficient (log10) (mu opioid receptor (rat) [1]; βarrestine 1): 6.08
4 | CO[C@@]12CC[C@@]3(C[C@@H]1[C@](C)(O)C(C)(C)C)[C@H]1Cc4ccc(O)c5c4[C@@]3(CCN1CC1CC1)[C@H]2O5 [Buprenorphine] (receptor: rat DOR) |  |  |  |  |  |  |  |  |  |  |  |  |  |  |  |  |  |  |  |  | pEC50 ([4]; Gαi1): 7.49; pEC50 ([4]; Gαi2): 6.88; pEC50 ([4]; Gαo): 7.28; pEC50 ([4]; Kir): 5.53; pEC50 ([4]; cAMP): 7.78
5 | CCC1(c2cccc(O)c2)CCCCN(C)C1 (stereo not given) [Meptazinol] | 5.15 | 6.21 | 5.38 | 5.41 | 6.58 |  |  |  |  |  |  |  |  |  |  |  |  |  |  |  | Log(tau/KA) transduction coefficient (log10) ([5]; Gαi1): 5.23; Log(tau/KA) transduction coefficient (log10) ([5]; Gαi2): 6.1; Log(tau/KA) transduction coefficient (log10) ([5]; Gαo): 6.31; Log(tau/KA) transduction coefficient (log10) ([5]; Kir): 4.84; Log(tau/KA) transduction coefficient (log10) ([5]; cAMP): 8.02
6 | CN(C)C(=O)C(CCN1CCC(O)(c2ccc(Cl)cc2)CC1)(c1ccccc1)c1ccccc1 [Loperamide] (receptor: rat DOR) |  |  |  |  |  |  |  |  |  |  |  |  |  |  |  |  |  |  |  |  | pEC50 ([4]; Gαi1): 5.05; pEC50 ([4]; Gαi2): 5.42; pEC50 ([4]; Gαo): 5.51; pEC50 ([4]; Kir): 5.23; pEC50 ([4]; cAMP): 6.1; pEC50 ([4]; βarrestine 1): 4.55; pEC50 ([4]; βarrestine 2): 4.47; pEC50 ([4]; βarrestine 2-GRK2): 4.36; pEC50 ([4]; βarrestine 2-GRK5): 4.83; pEC50 ([4]; βarrestine 2-GRK6): 4.54
7 | CCC1(c2cccc(O)c2)CCCCN(C)C1 (stereo not given) [Meptazinol] (receptor: rat MOR) |  |  |  |  |  |  |  |  |  |  |  |  |  |  |  |  |  |  |  |  | pEC50 (mu opioid receptor (rat) [6]; Gαi1): 5.94; pEC50 (mu opioid receptor (rat) [6]; Gαi2): 6.52; pEC50 (mu opioid receptor (rat) [6]; Gαo): 6.28; pEC50 (mu opioid receptor (rat) [6]; Kir): 6.08; pEC50 (mu opioid receptor (rat) [6]; cAMP): 6.99
8 | CO[C@@]12CC[C@@]3(C[C@@H]1[C@](C)(O)C(C)(C)C)[C@H]1Cc4ccc(O)c5c4[C@@]3(CCN1CC1CC1)[C@H]2O5 [Buprenorphine] | 6.88 | 7.63 | 7.28 | 8.05 | 6.93 | 5.04 | 5.79 | 5.36 |  | 5.51 | 6.73 | 6.61 | 4.88 | 8.45 | 3.5 | 6.16 | 6.14 | 6.06 | 4.6 | 7.87 | 
9 | CSCC[C@H](NC(=O)[C@H](Cc1ccccc1)NC(=O)CNC(=O)CNC(=O)[C@@H](N)Cc1ccc(O)cc1)C(=O)O [Met-Enk] | 7.24 | 8.73 | 6.21 | 6.72 | 8.44 | 5.65 | 6.24 | 6.35 | 6.06 | 5.92 | 7.02 | 6.59 | 7.27 | 8.98 | 6.88 | 5.86 | 6.55 | 6.44 | 4.97 | 9.4 | Log(tau/KA) transduction coefficient (log10) ([2]; βarrestine 1): 6.24; Log(tau/KA) transduction coefficient (log10) ([2]; βarrestine 2): 6.28; Log(tau/KA) transduction coefficient (log10) ([2]; βarrestine 2-GRK2): 6.57; Log(tau/KA) transduction coefficient (log10) ([2]; βarrestine 2-GRK5): 7.12; Log(tau/KA) transduction coefficient (log10) ([3]; βarrestine 1): 6.29; Log(tau/KA) transduction coefficient (log10) ([3]; βarrestine 2): 6.58; Log(tau/KA) transduction coefficient (log10) ([3]; βarrestine 2-GRK2): 6.67; Log(tau/KA) transduction coefficient (log10) ([3]; βarrestine 2-GRK5): 7.03; Log(tau/KA) transduction coefficient (log10) ([3]; βarrestine 2-GRK6): 6.83; Log(tau/KA) transduction coefficient (log10) (mu opioid receptor (rat) [1]; βarrestine 1): 5.63; Log(tau/KA) transduction coefficient (log10) ([5]; Gαi1): 6.47; Log(tau/KA) transduction coefficient (log10) ([5]; Gαi2): 7.32; Log(tau/KA) transduction coefficient (log10) ([5]; Gαo): 7.4; Log(tau/KA) transduction coefficient (log10) ([5]; Kir): 6.58; Log(tau/KA) transduction coefficient (log10) ([5]; cAMP): 8.62; Log(tau/KA) transduction coefficient (log10) ([5]; βarrestine 1): 5.9; Log(tau/KA) transduction coefficient (log10) ([5]; βarrestine 2): 5.97; Log(tau/KA) transduction coefficient (log10) ([5]; βarrestine 2-GRK2): 6.66; Log(tau/KA) transduction coefficient (log10) ([5]; βarrestine 2-GRK5): 6.65; Log(tau/KA) transduction coefficient (log10) ([5]; βarrestine 2-GRK6): 6.36
10 | COc1cccc(C2(O)CCCCC2CN(C)C)c1 (stereo not given) [Tramadol] | 2.98 | 4.73 | 3.82 | 3.81 | 5.02 |  |  |  |  |  |  |  |  |  |  |  |  |  |  |  | Log(tau/KA) transduction coefficient (log10) ([5]; Gαi1): 3.39; Log(tau/KA) transduction coefficient (log10) ([5]; Gαi2): 4.54; Log(tau/KA) transduction coefficient (log10) ([5]; Gαo): 4.27; Log(tau/KA) transduction coefficient (log10) ([5]; Kir): 3.78; Log(tau/KA) transduction coefficient (log10) ([5]; cAMP): 6.29
11 | COc1ccc2c3c1O[C@H]1C(=O)CC[C@@]4(O)[C@@H](C2)N(C)CC[C@]314 [Oxycodone] | 5.49 | 6.52 | 5.91 | 5.97 | 7.45 |  | 4.81 | 5.06 | 4.81 | 3.52 | 5.21 | 4.26 | 3.72 | 6.63 | 3.02 | 2.98 | 4.41 | 3.8 | 3.29 | 6.08 | Log(tau/KA) transduction coefficient (log10) ([2]; βarrestine 2-GRK2): 3.82; Log(tau/KA) transduction coefficient (log10) ([2]; βarrestine 2-GRK5): 3.15; Log(tau/KA) transduction coefficient (log10) ([3]; βarrestine 2): 3.12; Log(tau/KA) transduction coefficient (log10) ([3]; βarrestine 2-GRK2): 3.16; Log(tau/KA) transduction coefficient (log10) ([3]; βarrestine 2-GRK5): 3.5; Log(tau/KA) transduction coefficient (log10) ([3]; βarrestine 2-GRK6): 3.31; Log(tau/KA) transduction coefficient (log10) (mu opioid receptor (rat) [1]; βarrestine 1): 5.5
